Patent US20180028436A1, “TOPICAL FORMULATION OF HOPS EXTRACT” (priority 2016, published 2018)

System: fibroblast cells of L929 cell line
Test: MTT cytotoxicity assay on fibroblast cells
Type: cell-based
From the text: In this example, biocompatibility and toxicity of the topical formulation were studied. At first, cytotoxicity of the hops extract, hops nanoparticles (which were produced according to EXAMPLE 1), and β-cyclodextrin as the carrier were investigated as follows. The cultured fibroblast cells of L929 cell line were exposed to the hops extract, hops nanoparticles, and β-cyclodextrin in three test groups with different concentrations. Three test groups and the control group were studied in a 3-(4,5-dimethylthiazol-2-yl)-2,5-diphenyltetra-zolium bromide (MTT) assay using dimethyl thiazolyl diphenyl tetrazolium salt for evaluating the cell toxicity. FIG. 6A illustrates a MTT plot of the fibroblast cells after about 24 hours of exposing to the hops nanoparticles. Higher absorbance of the MTT dye indicates higher cellular proliferation.

## OC[C@H]1O[C@@H]2O[C@H]3[C@H](O)[C@@H](O)[C@@H](O[C@H]4[C@H](O)[C@@H](O)[C@@H](O[C@H]5[C@H](O)[C@@H](O)[C@@H](O[C@H]6[C@H](O)[C@@H](O)[C@@H](O[C@H]7[C@H](O)[C@@H](O)[C@@H](O[C@H]8[C@H](O)[C@@H](O)[C@@H](O[C@H]1[C@H](O)[C@H]2O)O[C@@H]8CO)O[C@@H]7CO)O[C@@H]6CO)O[C@@H]5CO)O[C@@H]4CO)O[C@@H]3CO [β-cyclodextrin]
L929 fibroblast cells, MTT, 24 hours
  IC50 Value 24 hours: >6000 µg/mL
L929 fibroblast cells, MTT, 72 hours
  IC50 Value 72 hours: >6000 µg/mL
Conclusion from IC50 values of TABLE 3
  cytotoxicity effect: no cytotoxicity effect
